Source: the NIST ThermoML archive (doi:10.1016/j.jct.2005.03.012)

Assay: molar heat capacity at constant pressure; xn = mol fraction of the nth substance listed
Details: Liquid, Flow calorimetry

CO [methanol] + O
Details | molar heat capacity at constant pressure [J/K/mol]
329.01 K, 5000 kPa, x1 = 0.9 | 88.91
330.62 K, 10000 kPa, x1 = 0.8 | 89.87
330.92 K, 5000 kPa, x1 = 0.8 | 90.19
330.98 K, 2000 kPa, x1 = 0.8 | 89.81
331.74 K, 5000 kPa, x1 = 0.1 | 82.22
332.15 K, 5000 kPa, x1 = 0.7 | 90.68
333.12 K, 10000 kPa, x1 = 0.6 | 90
333.19 K, 5000 kPa, x1 = 0.6 | 90.87
333.43 K, 5000 kPa, x1 = 0.2 | 86.68
333.48 K, 10000 kPa, x1 = 0.2 | 86.18
333.52 K, 2000 kPa, x1 = 0.6 | 90.9
333.71 K, 2000 kPa, x1 = 0.2 | 86.86
333.89 K, 5000 kPa, x1 = 0.5 | 90.43
333.95 K, 5000 kPa, x1 = 0.4 | 89.97
334 K, 5000 kPa, x1 = 0.3 | 88.54
334.08 K, 10000 kPa, x1 = 0.4 | 89.57
334.13 K, 2000 kPa, x1 = 0.4 | 90.16
352.61 K, 5000 kPa, x1 = 0.9 | 95.17
354.08 K, 5000 kPa, x1 = 0.8 | 95.72
354.53 K, 5000 kPa, x1 = 0.1 | 82.78
355.25 K, 5000 kPa, x1 = 0.7 | 96.11
355.71 K, 5000 kPa, x1 = 0.6 | 95.6
355.86 K, 5000 kPa, x1 = 0.5 | 94.46
355.92 K, 5000 kPa, x1 = 0.2 | 87.32
356.11 K, 5000 kPa, x1 = 0.4 | 92.66
356.17 K, 5000 kPa, x1 = 0.3 | 90.87
376.69 K, 5000 kPa, x1 = 0.9 | 102.61
377.42 K, 5000 kPa, x1 = 0.8 | 102.59
377.92 K, 5000 kPa, x1 = 0.1 | 83.23
377.99 K, 5000 kPa, x1 = 0.7 | 101.84
378.34 K, 5000 kPa, x1 = 0.6 | 100.47
378.47 K, 5000 kPa, x1 = 0.5 | 98.56
378.64 K, 5000 kPa, x1 = 0.4 | 96.44
378.77 K, 5000 kPa, x1 = 0.3 | 92.83
378.78 K, 5000 kPa, x1 = 0.2 | 88.72
424.2 K, 5000 kPa, x1 = 0.5 | 107.27
424.22 K, 5000 kPa, x1 = 0.4 | 102.77
424.24 K, 5000 kPa, x1 = 0.7 | 114.48
424.36 K, 10000 kPa, x1 = 0.4 | 101.14
424.4 K, 2000 kPa, x1 = 0.4 | 102.94
424.42 K, 2000 kPa, x1 = 0.6 | 111.49
424.47 K, 5000 kPa, x1 = 0.6 | 111.25
424.53 K, 10000 kPa, x1 = 0.6 | 108.79
424.54 K, 5000 kPa, x1 = 0.8 | 118.06
424.59 K, 2000 kPa, x1 = 0.8 | 118.73
424.59 K, 10000 kPa, x1 = 0.8 | 118.7
424.7 K, 10000 kPa, x1 = 0.2 | 91.26
424.77 K, 2000 kPa, x1 = 0.2 | 92.01
424.89 K, 5000 kPa, x1 = 0.9 | 121.27
424.97 K, 5000 kPa, x1 = 0.3 | 97.58
425.05 K, 5000 kPa, x1 = 0.2 | 91.9
425.68 K, 5000 kPa, x1 = 0.1 | 85.15
437.16 K, 8500 kPa, x1 = 0.6 | 124.31
471.84 K, 10000 kPa, x1 = 0.6 | 122.64
471.87 K, 10000 kPa, x1 = 0.4 | 110.24
472.32 K, 5000 kPa, x1 = 0.4 | 111.75
472.41 K, 8500 kPa, x1 = 0.4 | 110.52
472.56 K, 5000 kPa, x1 = 0.5 | 119.44
472.78 K, 8500 kPa, x1 = 0.2 | 96.55
472.91 K, 5000 kPa, x1 = 0.3 | 104.69
472.98 K, 5000 kPa, x1 = 0.6 | 127.9
473.11 K, 5000 kPa, x1 = 0.7 | 135.08
473.16 K, 5000 kPa, x1 = 0.8 | 143
473.21 K, 10000 kPa, x1 = 0.8 | 135.8
473.53 K, 10000 kPa, x1 = 0.2 | 96.73
473.95 K, 5000 kPa, x1 = 0.9 | 153.78
474.26 K, 5000 kPa, x1 = 0.2 | 96.84
474.27 K, 5000 kPa, x1 = 0.1 | 89.79
474.92 K, 8500 kPa, x1 = 0.8 | 138.52
497 K, 10000 kPa, x1 = 0.2 | 100.23
497 K, 10000 kPa, x1 = 0.4 | 117.78
497.3 K, 8500 kPa, x1 = 0.3 | 109.45
497.56 K, 8500 kPa, x1 = 0.4 | 118.93
497.97 K, 8500 kPa, x1 = 0.2 | 101.63
498.08 K, 8500 kPa, x1 = 0.5 | 128.47
498.33 K, 8500 kPa, x1 = 0.6 | 139.08
498.46 K, 10000 kPa, x1 = 0.6 | 136.33
499.19 K, 8500 kPa, x1 = 0.1 | 92.18
499.79 K, 8500 kPa, x1 = 0.8 | 166.33
499.83 K, 10000 kPa, x1 = 0.8 | 159.51
499.85 K, 8500 kPa, x1 = 0.7 | 152.5
500.37 K, 8500 kPa, x1 = 0.9 | 185.8
507.38 K, 10000 kPa, x1 = 0.2 | 104.52
507.6 K, 10000 kPa, x1 = 0.4 | 122.36
508.54 K, 10000 kPa, x1 = 0.6 | 145.98
508.68 K, 8500 kPa, x1 = 0.1 | 95.38
508.96 K, 8500 kPa, x1 = 0.2 | 103.83
509.5 K, 10000 kPa, x1 = 0.8 | 178.64
509.58 K, 8500 kPa, x1 = 0.4 | 124.67
510.29 K, 8500 kPa, x1 = 0.5 | 137.86
510.32 K, 8500 kPa, x1 = 0.3 | 114.54
511.09 K, 8500 kPa, x1 = 0.8 | 204.86
511.15 K, 8500 kPa, x1 = 0.7 | 175.97
511.4 K, 8500 kPa, x1 = 0.6 | 155.15
511.68 K, 8500 kPa, x1 = 0.9 | 268
513.62 K, 10000 kPa, x1 = 0.5 | 138.48
514.03 K, 10000 kPa, x1 = 0.4 | 126.54
514.03 K, 10000 kPa, x1 = 0.6 | 154.89
514.08 K, 10000 kPa, x1 = 0.3 | 115.36
514.53 K, 10000 kPa, x1 = 0.1 | 95.01
514.91 K, 10000 kPa, x1 = 0.2 | 105.19
514.98 K, 10000 kPa, x1 = 0.9 | 229.95
515.2 K, 10000 kPa, x1 = 0.8 | 198.37
515.25 K, 10000 kPa, x1 = 0.7 | 174.88
515.73 K, 8500 kPa, x1 = 0.1 | 95.69
516.4 K, 8500 kPa, x1 = 0.9 | 508.52
517.62 K, 8500 kPa, x1 = 0.2 | 106.77
517.97 K, 8500 kPa, x1 = 0.3 | 119.14
518.82 K, 8500 kPa, x1 = 0.8 | 303.27
519.33 K, 8500 kPa, x1 = 0.4 | 133.94
519.69 K, 8500 kPa, x1 = 0.7 | 212.23
520.61 K, 8500 kPa, x1 = 0.5 | 150.12
522.42 K, 8500 kPa, x1 = 0.6 | 186.76
